{"source": "the supplement of paper PMC10307832", "experiment_in_all_cases": "relative viability (nuclei count vs DMSO), 5 days (fraction); higher = more cells survive", "key": {"201T": {"test_system": "201T", "in_short": "(§1)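 The day after seeding in 1536-well plates, lung cancer cell lines were treated by pin tool with a single drug, or with a fixed anchor-drug dose together with five library-drug doses (not always all listed) in √10 steps. After 5 days, a combined fix-and-stain solution (final 0.05% Triton X-100, 1% formaldehyde, 1 ug/ml Hoechst) was added. Nuclei counted on 4× images gave relative viability as treated counts over vehicle counts, reported as the median of duplicate plates.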"}, "EMC-BAC-2": {"test_system": "EMC-BAC-2", "in_short": "as §1"}, "EPLC-272H": {"test_system": "EPLC-272H", "in_short": "as §1"}, "LCLC-103H": {"test_system": "LCLC-103H", "in_short": "as §1"}, "NCI-H1355": {"test_system": "NCI-H1355", "in_short": "as §1"}, "NCI-H1666": {"test_system": "NCI-H1666", "in_short": "as §1"}, "NCI-H1755": {"test_system": "NCI-H1755", "in_short": "as §1"}, "NCI-H1792": {"test_system": "NCI-H1792", "in_short": "as §1"}, "NCI-H1793": {"test_system": "NCI-H1793", "in_short": "as §1"}, "NCI-H1975": {"test_system": "NCI-H1975", "in_short": "as §1"}, "NCI-H2126": {"test_system": "NCI-H2126", "in_short": "as §1"}, "NCI-H2170": {"test_system": "NCI-H2170", "in_short": "as §1"}, "NCI-H2228": {"test_system": "NCI-H2228", "in_short": "as §1"}, "NCI-H2342": {"test_system": "NCI-H2342", "in_short": "as §1"}, "NCI-H441": {"test_system": "NCI-H441", "in_short": "as §1"}, "NCI-H520": {"test_system": "NCI-H520", "in_short": "as §1"}, "NCI-H727": {"test_system": "NCI-H727", "in_short": "as §1"}, "NCI-H838": {"test_system": "NCI-H838", "in_short": "as §1"}, "PC-3 [JPC-3]": {"test_system": "PC-3 [JPC-3]", "in_short": "as §1"}, "SK-MES-1": {"test_system": "SK-MES-1", "in_short": "as §1"}, "SW 1573": {"test_system": "SW 1573", "in_short": "as §1"}}}
{"smiles": "Nc1cccc2c1CN(C1CCC(=O)NC1=O)C2=O", "note": "(centres undefined) [Lenalidomide] + CCNC(=O)c1noc(-c2cc(C(C)C)c(O)cc2O)c1-c1ccc(CN2CCOCC2)cc1 [Luminespib] (partner 0.01 µM)", "values": [{"measurement": "relative viability", "setting": "201T; first compound 0.253 µM", "value": 1.05}, {"measurement": "relative viability", "setting": "201T; first compound 2.53 µM", "value": 1.03}, {"measurement": "relative viability", "setting": "201T; first compound 8 µM", "value": 1.09}, {"measurement": "relative viability", "setting": "EMC-BAC-2; first compound 0.253 µM", "value": 1.22}, {"measurement": "relative viability", "setting": "EMC-BAC-2; first compound 0.8 µM", "value": 1.1}, {"measurement": "relative viability", "setting": "EMC-BAC-2; first compound 2.53 µM", "value": 1.23}, {"measurement": "relative viability", "setting": "EMC-BAC-2; first compound 8 µM", "value": 1.11}, {"measurement": "relative viability", "setting": "EPLC-272H; first compound 0.253 µM", "value": 0.341}, {"measurement": "relative viability", "setting": "EPLC-272H; first compound 0.8 µM", "value": 0.259}, {"measurement": "relative viability", "setting": "EPLC-272H; first compound 2.53 µM", "value": 0.276}, {"measurement": "relative viability", "setting": "EPLC-272H; first compound 8 µM", "value": 0.204}, {"measurement": "relative viability", "setting": "LCLC-103H; first compound 0.253 µM", "value": 1.02}, {"measurement": "relative viability", "setting": "LCLC-103H; first compound 0.8 µM", "value": 0.958}, {"measurement": "relative viability", "setting": "LCLC-103H; first compound 2.53 µM", "value": 1.17}, {"measurement": "relative viability", "setting": "LCLC-103H; first compound 8 µM", "value": 0.922}, {"measurement": "relative viability", "setting": "NCI-H1355; first compound 0.253 µM", "value": 0.651}, {"measurement": "relative viability", "setting": "NCI-H1355; first compound 2.53 µM", "value": 0.812}, {"measurement": "relative viability", "setting": "NCI-H1355; first compound 8 µM", "value": 0.558}, {"measurement": "relative viability", "setting": "NCI-H1666; first compound 0.253 µM", "value": 0.977}, {"measurement": "relative viability", "setting": "NCI-H1666; first compound 2.53 µM", "value": 1.02}, {"measurement": "relative viability", "setting": "NCI-H1666; first compound 8 µM", "value": 1.04}, {"measurement": "relative viability", "setting": "NCI-H1755; first compound 0.253 µM", "value": 0.422}, {"measurement": "relative viability", "setting": "NCI-H1755; first compound 0.8 µM", "value": 0.42}, {"measurement": "relative viability", "setting": "NCI-H1755; first compound 2.53 µM", "value": 0.596}, {"measurement": "relative viability", "setting": "NCI-H1755; first compound 8 µM", "value": 0.655}, {"measurement": "relative viability", "setting": "NCI-H1792; first compound 0.253 µM", "value": 0.357}, {"measurement": "relative viability", "setting": "NCI-H1792; first compound 2.53 µM", "value": 0.449}, {"measurement": "relative viability", "setting": "NCI-H1792; first compound 8 µM", "value": 0.495}, {"measurement": "relative viability", "setting": "NCI-H1793; first compound 0.253 µM", "value": 0.173}, {"measurement": "relative viability", "setting": "NCI-H1793; first compound 2.53 µM", "value": 0.167}, {"measurement": "relative viability", "setting": "NCI-H1793; first compound 8 µM", "value": 0.165}, {"measurement": "relative viability", "setting": "NCI-H1975; first compound 0.253 µM", "value": 0.194}, {"measurement": "relative viability", "setting": "NCI-H1975; first compound 0.8 µM", "value": 0.235}, {"measurement": "relative viability", "setting": "NCI-H1975; first compound 2.53 µM", "value": 0.251}, {"measurement": "relative viability", "setting": "NCI-H1975; first compound 8 µM", "value": 0.196}, {"measurement": "relative viability", "setting": "NCI-H2126; first compound 0.253 µM", "value": 0.915}, {"measurement": "relative viability", "setting": "NCI-H2126; first compound 0.8 µM", "value": 0.935}, {"measurement": "relative viability", "setting": "NCI-H2126; first compound 2.53 µM", "value": 0.996}, {"measurement": "relative viability", "setting": "NCI-H2126; first compound 8 µM", "value": 0.871}, {"measurement": "relative viability", "setting": "NCI-H2170; first compound 0.253 µM", "value": 0.683}, {"measurement": "relative viability", "setting": "NCI-H2170; first compound 0.8 µM", "value": 0.799}, {"measurement": "relative viability", "setting": "NCI-H2170; first compound 2.53 µM", "value": 0.588}, {"measurement": "relative viability", "setting": "NCI-H2170; first compound 8 µM", "value": 0.426}, {"measurement": "relative viability", "setting": "NCI-H2228; first compound 0.253 µM", "value": 0.156}, {"measurement": "relative viability", "setting": "NCI-H2228; first compound 0.8 µM", "value": 0.103}, {"measurement": "relative viability", "setting": "NCI-H2228; first compound 2.53 µM", "value": 0.115}, {"measurement": "relative viability", "setting": "NCI-H2228; first compound 8 µM", "value": 0.189}, {"measurement": "relative viability", "setting": "NCI-H2342; first compound 0.253 µM", "value": 0.706}, {"measurement": "relative viability", "setting": "NCI-H2342; first compound 0.8 µM", "value": 0.744}, {"measurement": "relative viability", "setting": "NCI-H2342; first compound 2.53 µM", "value": 0.806}, {"measurement": "relative viability", "setting": "NCI-H2342; first compound 8 µM", "value": 0.56}, {"measurement": "relative viability", "setting": "NCI-H441; first compound 0.253 µM", "value": 0.293}, {"measurement": "relative viability", "setting": "NCI-H441; first compound 0.8 µM", "value": 0.388}, {"measurement": "relative viability", "setting": "NCI-H441; first compound 2.53 µM", "value": 0.307}, {"measurement": "relative viability", "setting": "NCI-H441; first compound 8 µM", "value": 0.285}, {"measurement": "relative viability", "setting": "NCI-H520; first compound 0.253 µM", "value": 0.214}, {"measurement": "relative viability", "setting": "NCI-H520; first compound 0.8 µM", "value": 0.222}, {"measurement": "relative viability", "setting": "NCI-H520; first compound 2.53 µM", "value": 0.218}, {"measurement": "relative viability", "setting": "NCI-H520; first compound 8 µM", "value": 0.267}, {"measurement": "relative viability", "setting": "NCI-H727; first compound 0.253 µM", "value": 0.45}, {"measurement": "relative viability", "setting": "NCI-H727; first compound 0.8 µM", "value": 0.316}, {"measurement": "relative viability", "setting": "NCI-H727; first compound 2.53 µM", "value": 0.473}, {"measurement": "relative viability", "setting": "NCI-H727; first compound 8 µM", "value": 0.477}, {"measurement": "relative viability", "setting": "NCI-H838; first compound 0.253 µM", "value": 0.338}, {"measurement": "relative viability", "setting": "NCI-H838; first compound 0.8 µM", "value": 0.308}, {"measurement": "relative viability", "setting": "NCI-H838; first compound 2.53 µM", "value": 0.269}, {"measurement": "relative viability", "setting": "NCI-H838; first compound 8 µM", "value": 0.4}, {"measurement": "relative viability", "setting": "PC-3 [JPC-3]; first compound 0.253 µM", "value": 0.651}, {"measurement": "relative viability", "setting": "PC-3 [JPC-3]; first compound 0.8 µM", "value": 0.729}, {"measurement": "relative viability", "setting": "PC-3 [JPC-3]; first compound 2.53 µM", "value": 0.616}, {"measurement": "relative viability", "setting": "PC-3 [JPC-3]; first compound 8 µM", "value": 0.572}, {"measurement": "relative viability", "setting": "SK-MES-1; first compound 0.253 µM", "value": 0.777}, {"measurement": "relative viability", "setting": "SK-MES-1; first compound 0.8 µM", "value": 0.891}, {"measurement": "relative viability", "setting": "SK-MES-1; first compound 2.53 µM", "value": 0.886}, {"measurement": "relative viability", "setting": "SK-MES-1; first compound 8 µM", "value": 0.863}, {"measurement": "relative viability", "setting": "SW 1573; first compound 0.253 µM", "value": 0.538}, {"measurement": "relative viability", "setting": "SW 1573; first compound 0.8 µM", "value": 0.198}, {"measurement": "relative viability", "setting": "SW 1573; first compound 2.53 µM", "value": 0.162}, {"measurement": "relative viability", "setting": "SW 1573; first compound 8 µM", "value": 0.366}]}
